Format in all cases: biochemical
For data set [1], the target named is T1, endogenous IDE in mouse plasma (Mus musculus, UniProt Q9JHR7, L174F/R633G/V509I/Y332H).
T1 construct: endogenous IDE in mouse plasma; from tissue; host or cells: mouse plasma
The data set is described as follows: LC-MS assay for ex vivo degradation of CGRP in mouse plasma. The settings on record: CGRP 10 μM. The method, then: (§1) All data points and error bars represent mean±SEM. Significance tests were performed using two-tail Student's t-test, and significance levels shown in the figures are p<0.05 (*) or p<0.01 (**) versus the vehicle-only control group. The in vitro selection of the DNA-templated macrocycle libraryl^16,17 used 20 μg His6-tagged mouse IDE immobilized on cobalt magnetic beads (Dynabeads, Invitrogen). IDE proteolytic activity was assayed with fluorogenic peptide Mca-[…](Dnp)-OH (R&D). IDE inhibition was confirmed using an anti-insulin antibody time-resolved FRET assay (Cysbio), and using an LCMS assay for CGRP cleavage fragments CGRP1-17 and CGRP18-37 in plasma^18. […] IDE degradation assays for insulin and calcitonin-gene related peptide (CGRP). […] Fluorescence was measured using a Tecan Safire 2 plate reader (excitation=320 nm, emission=665 and 620 nm, lag time=60 μs) according the assay manufacturer's recommendations. Degradation of CGRP by endogenous IDE in mouse plasma was analyzed by LC-MS for the formation of CGRP1-17 and CGRP18-37 as previously reported^6.

Another data set has as its target T2, hIDE WT (Homo sapiens, UniProt P14735).
T2 construct: The reported N-His6-tagged human IDE42-1019 construct; made in house; host or cells: E. coli Rosetta 2 (DE3) pLysS
The data set is described as follows: Small molecule-enzyme mutant complementation study, wild type. The source says:
Protease assays with fluorogenic peptide substrates. […] All assay data points were obtained in duplicate.
Site-directed mutagenesis, expression, and purification of human IDE. The reported N-His6-tagged human IDE42-1019 construct was introduced in the expression plasmid pTrcHis-A (Invitrogen) using primers for uracil-specific excision reactions (USER) by Taq (NEB) and Pfu polymerases (PfuTurbo CX®, Agilent). The IDE gene was amplified with the primers 5′-[…]-dU-[…] and 5′-[…] G-dU-[…] (underlined sequences represent overhangs, and italics highlight the PCR priming sequence). Similarly, the pTrcHis-A vector was amplified for USER cloning with the primers 5′-[…] TGA-dU-[…] CCC and 5′-[…]-dU-[…]. Mutant IDE constructs were generated by amplifying the full vector construct with USER cloning primers introducing a mutant overhang (Table 5).
All PCR products were purified on microcentrifuge membrane columns (MinElute®, Qiagen) and quantified by UV absorbance (NanoDrop). Each fragment (0.2 pmol) was combined in a 10 μL reaction mixture containing 20 units DpnI (NEB), 0.75 units of USER mix (Endonuclease VIII and Uracil-DNA Glycosylase, NEB), 20 mM Tris-acetate, 50 mM potassium acetate, 10 mM magnesium acetate, 1 mM dithiothreitol at pH 7.9 (1× NEBuffer 4). The reactions were incubated at 37° C. for 45 min, followed by heating to 80° C. and slow cooling to 30° C. (0.2° C./s). The hybridized constructs were directly used for heat-shock transformation of chemically competent NEB turbo E. coli cells according to the manufacturer's instructions. Transformants were selected on carbenicillin LB agar, and isolated colonies were cultured overnight in 2 mL LB.
The plasmid was extracted using a microcentrifuge membrane column kit (Miniprep®, Qiagen), and the sequence of genes and vector junctions were confirmed by Sanger sequencing (Table 6). The plasmid constructs were transformed by heat-shock into chemically-competent expression strain Rosetta 2 (DE3) pLysS E. coli cells (EMD Millipore), and selected on carbenicillin/chloramphenicol LB agar. Cells transformed with IDE pTrcHis A constructs were cultured overnight at 37° C. in 2 XYT media (31 g in 1 L) containing 100 μg/mL ampicillin and 34 μg/mL chloramphenicol. Expression of His6-tagged IDE proteins was induced when the culture measured OD600 ˜0.6 by addition of isopropyl-β-D-1-thiogalactopyranoside (IPTG) to 1 mM final concentration, incubated overnight at 37° C., followed by centrifugation at 10,000 g for 30 min at 4° C.
Recombinant His6-tagged proteins were purified by Ni(II)-affinity chromatography (IMAC sepharose beads, GE Healthcare®) according to the manufacturer's instructions. The cell pellets were resuspended in pH 8.0 buffer containing 50 mM phosphate, 300 mM NaCl, 10 mM imidazole, 1% Triton X-100 and 1 mM tris(2-carboxyethyl)phosphine hydrochloride (TCEP), and were lysed by probe sonication for 4 min at 4° C., followed by clearing of cell debris by centrifugation at 10,000 g for 25 min at 4° C. The supernatant was incubated with Ni(II)-doped IMAC resin (2 mL) for 3 h at 4° C. The resin was washed twice with the cell resuspension/lysis buffer, and three times with pH 8.0 buffer containing 50 mM phosphate, 300 mM NaCl,50 mM imidazole and 1 mM TCEP. Elution was performed in 2 mL aliquots by raising the imidazole concentration to 250 mM and subsequently to 500 mM in the previous buffer. The fractions were combined and the buffer was exchanged to the recommended IDE buffer (R&D) using spin columns with 100 KDa molecular weight cut off membranes (Millipore). Protein yields were typically ˜10 μg/L, and >90% purity based on gel electrophoresis analysis (Coomassie stained).

Another data set has as its target IDE (R&D) (Homo sapiens, UniProt P14735). As to the kind of experiment: Homogeneous time-resolved fluorescence (HTRF) insulin degradation assay. Also noted: recombinant human IDE42-1019 (R&D Systems); purchased R&D. As to the method: as §1
For another data set, the target named is IDE (Homo sapiens, UniProt P14735). The data set is described as follows: Protease assay with fluorogenic peptide substrate Mca-[…](Dnp)-OH (IDE species not given). Also noted: The proteases IDE42-1019, recombinant human IDE42-1019 (R&D Systems). To be noted: IDE. The method, then:
All data points and error bars represent mean±SEM. Significance tests were performed using two-tail Student's t-test, and significance levels shown in the figures are p<0.05 (*) or p<0.01 (**) versus the vehicle-only control group. The in vitro selection of the DNA-templated macrocycle libraryl^16,17 used 20 μg His6-tagged mouse IDE immobilized on cobalt magnetic beads (Dynabeads, Invitrogen). IDE proteolytic activity was assayed with fluorogenic peptide Mca-[…](Dnp)-OH (R&D). IDE inhibition was confirmed using an anti-insulin antibody time-resolved FRET assay (Cysbio), and using an LCMS assay for CGRP cleavage fragments CGRP1-17 and CGRP18-37 in plasma^18. […] Protease assays with fluorogenic peptide substrates. […] (R&D). All assay data points were obtained in duplicate.

SMILES strings stand for the structures.

T2 sequence (P14735 42-1019): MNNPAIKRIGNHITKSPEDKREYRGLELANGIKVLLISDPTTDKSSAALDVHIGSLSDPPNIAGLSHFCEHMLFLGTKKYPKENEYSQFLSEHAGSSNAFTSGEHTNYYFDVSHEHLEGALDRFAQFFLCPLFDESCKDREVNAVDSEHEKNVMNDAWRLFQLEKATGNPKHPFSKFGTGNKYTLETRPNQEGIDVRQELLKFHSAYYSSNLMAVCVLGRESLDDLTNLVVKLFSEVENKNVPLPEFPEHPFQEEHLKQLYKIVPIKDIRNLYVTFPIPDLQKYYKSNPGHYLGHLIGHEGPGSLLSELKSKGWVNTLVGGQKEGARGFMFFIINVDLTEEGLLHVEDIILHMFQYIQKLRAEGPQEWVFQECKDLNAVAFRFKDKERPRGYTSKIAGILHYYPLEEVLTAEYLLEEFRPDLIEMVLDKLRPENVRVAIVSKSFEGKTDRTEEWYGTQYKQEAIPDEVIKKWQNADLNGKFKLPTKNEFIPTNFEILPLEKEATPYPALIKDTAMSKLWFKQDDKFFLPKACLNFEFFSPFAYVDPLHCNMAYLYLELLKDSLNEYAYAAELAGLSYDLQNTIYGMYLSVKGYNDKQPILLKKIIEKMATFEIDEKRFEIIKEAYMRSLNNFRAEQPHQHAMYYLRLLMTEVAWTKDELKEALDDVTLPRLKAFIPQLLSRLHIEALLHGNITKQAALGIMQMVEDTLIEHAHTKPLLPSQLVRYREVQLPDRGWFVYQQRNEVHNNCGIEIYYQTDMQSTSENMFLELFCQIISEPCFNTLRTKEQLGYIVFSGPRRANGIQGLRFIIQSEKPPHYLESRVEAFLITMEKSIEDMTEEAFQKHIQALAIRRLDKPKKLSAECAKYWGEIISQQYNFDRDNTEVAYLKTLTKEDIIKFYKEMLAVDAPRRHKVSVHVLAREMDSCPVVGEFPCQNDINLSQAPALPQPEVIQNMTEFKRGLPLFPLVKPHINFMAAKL
Sequence of IDE (R&D) (P14735 42-1019): as above
Sequence of IDE (P14735 42-1019): as above
T1 sequence (Q9JHR7 whole entry L174F/Y332H/V509I/R633G): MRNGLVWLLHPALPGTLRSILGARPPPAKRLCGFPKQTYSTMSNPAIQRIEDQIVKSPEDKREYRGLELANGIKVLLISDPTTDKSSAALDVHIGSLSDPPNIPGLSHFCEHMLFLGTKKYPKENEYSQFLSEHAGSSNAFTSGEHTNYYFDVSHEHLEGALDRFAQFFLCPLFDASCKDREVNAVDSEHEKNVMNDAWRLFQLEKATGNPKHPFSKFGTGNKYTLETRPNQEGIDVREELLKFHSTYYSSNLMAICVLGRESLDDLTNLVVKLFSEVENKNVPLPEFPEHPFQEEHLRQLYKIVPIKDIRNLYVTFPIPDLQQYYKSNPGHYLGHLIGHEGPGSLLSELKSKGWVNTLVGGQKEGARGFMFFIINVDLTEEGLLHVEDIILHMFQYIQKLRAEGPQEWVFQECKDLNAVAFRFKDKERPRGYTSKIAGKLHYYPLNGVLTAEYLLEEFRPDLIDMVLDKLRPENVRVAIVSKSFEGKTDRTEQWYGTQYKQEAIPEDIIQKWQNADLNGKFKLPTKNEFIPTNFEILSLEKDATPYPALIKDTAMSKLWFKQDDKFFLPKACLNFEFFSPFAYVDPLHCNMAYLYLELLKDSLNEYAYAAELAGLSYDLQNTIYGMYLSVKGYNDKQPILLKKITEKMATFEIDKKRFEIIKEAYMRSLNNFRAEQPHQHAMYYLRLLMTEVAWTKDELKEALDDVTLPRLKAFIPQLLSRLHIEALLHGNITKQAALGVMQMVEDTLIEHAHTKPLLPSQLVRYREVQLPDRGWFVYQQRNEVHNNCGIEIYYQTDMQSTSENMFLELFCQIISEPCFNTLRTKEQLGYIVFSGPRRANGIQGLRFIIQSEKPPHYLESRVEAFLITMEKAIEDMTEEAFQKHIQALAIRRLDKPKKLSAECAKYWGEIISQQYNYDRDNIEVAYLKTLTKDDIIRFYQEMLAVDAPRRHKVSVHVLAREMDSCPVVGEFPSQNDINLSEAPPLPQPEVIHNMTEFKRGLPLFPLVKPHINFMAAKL

For the molecule `NC(=O)CCC1NC(=O)C=CC(=O)NC(C(N)=O)CCCCNC(=O)C(Cc2ccc(C(=O)c3ccccc3)cc2)NC(=O)C(CC2CCCCC2)NC1=O` (stereo not drawn) [Compound 6b], the “inhibition of IDE proteolytic activity, calcitonin-gene related peptide LC-MS assay” value in data set [1] is “confirmed”. Besides, the IC50 shift on hIDE WT (batch 1 (reference)), at hIDE WT (batch 2 (reference)) and on hIDE WT (batch 3 (reference)) was 1.0 fold in each case. Moreover, the “inhibition of IDE proteolytic activity, insulin immunoassay” value at IDE (R&D) is recorded as “confirmed”.
For `NCCCC[C@@H]1NC(=O)/C=C/C(=O)N[C@H](C(N)=O)CCCCNC(=O)[C@@H](Cc2ccc(C(=O)c3ccccc3)cc2)NC(=O)[C@H](CC2CCCCC2)NC1=O` [Compound 6bK], the IC50 on IDE came out at 50 nM.

Values taken from US20160282364A1, “ASSAY FOR INSULIN-DEGRADING ENZYME (IDE) INHIBITORS” (PRESIDENT AND FELLOWS OF HARVARD COLLEGE, priority 2013, published 2016).
